Test results as given in ChEMBL document CHEMBL1201862, “PubChem BioAssay data set” (2004).
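Each compound was tested at five concentrations against cells in 96-well plates for 48 hours. GI50 = concentration required for 50% inhibition of growth.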 Activity calls are given as the source filed them. Cut-off read from the data, not from the text of the source: active = GI50 up to about 1.1 µM and inactive = higher.

Key:
Experiment in all cases: growth of human tumour cells (NCI), 48 h
LOX IMVI = tested on: LOX IMVI
ACHN = tested on: ACHN
HOP-92 = tested on: HOP-92
K562 = tested on: K562
NCI-H460 = tested on: NCI-H460
Hs-578T = tested on: Hs-578T
NCI/ADR-RES = tested on: NCI/ADR-RES
SF-295 = tested on: SF-295
MDA-N = tested on: MDA-N
NCI-H23 = tested on: NCI-H23
IGROV-1 = tested on: IGROV-1
EKVX = tested on: EKVX
HT-29 = tested on: HT-29
COLO 205 = tested on: COLO 205
SK-MEL-2 = tested on: SK-MEL-2
HOP-62 = tested on: HOP-62
HL-60 = tested on: HL-60
PC-3 = tested on: PC-3
OVCAR-4 = tested on: OVCAR-4
SNB-75 = tested on: SNB-75

| Compound | GI50 (LOX IMVI) | GI50 (ACHN) | GI50 (HOP-92) | GI50 (K562) | GI50 (NCI-H460) | GI50 (Hs-578T) | GI50 (NCI/ADR-RES) | GI50 (SF-295) | GI50 (MDA-N) | GI50 (NCI-H23) | GI50 (IGROV-1) | GI50 (EKVX) | GI50 (HT-29) | GI50 (COLO 205) | GI50 (SK-MEL-2) | GI50 (HOP-62) | GI50 (HL-60) | GI50 (PC-3) | GI50 (OVCAR-4) | GI50 (SNB-75) |
| --- | --- | --- | --- | --- | --- | --- | --- | --- | --- | --- | --- | --- | --- | --- | --- | --- | --- | --- | --- | --- |
| Cc1ccc(O)c(C2=NNC(c3cccc(Br)c3)C2)c1 (configuration not stated) | 38.3 µM (inactive) | 34.3 µM (inactive) | 15.4 µM (inactive) | 38 µM (inactive) | 33.9 µM (inactive) | 37.3 µM (inactive) | 48.1 µM (inactive) | 61 µM (inactive) | 28.8 µM (inactive) | 76.6 µM (inactive) | 13 µM (inactive) | 35.9 µM (inactive) | 64.1 µM (inactive) | > 100 µM (inactive) | > 100 µM (inactive) | 86.3 µM (inactive) | 53.3 µM (inactive) | 45.8 µM (inactive) |  |  |
| CN1C(=O)C(=CNc2ccccc2[N+](=O)[O-])C(=O)N(C)C1=O | > 100 µM (inactive) | > 100 µM (inactive) | > 100 µM (inactive) | > 100 µM (inactive) | > 100 µM (inactive) | > 100 µM (inactive) | > 100 µM (inactive) | > 100 µM (inactive) | > 100 µM (inactive) | > 100 µM (inactive) | > 100 µM (inactive) | > 100 µM (inactive) | > 100 µM (inactive) | > 100 µM (inactive) | > 100 µM (inactive) | > 100 µM (inactive) |  | > 100 µM (inactive) | > 100 µM (inactive) | > 100 µM (inactive) |
| CCCCCCCCCCC(O)C1CCC(C(O)CCC(O)C2CCC(CCCCCCC[C@H](O)CC3=C[C@@H](C)OC3=O)O2)O1 (some centres not stated) | 14.6 µM (inactive) | 1.2 µM (inactive) | 11.6 µM (inactive) |  | > 22.9 µM (inactive) | > 10 µM (inactive) | 0.957 µM (active) | 0.01 µM (active) | > 10 µM (inactive) | 0.01 µM (active) | 31.5 µM (inactive) | 34.8 µM (inactive) | > 100 µM (inactive) | > 100 µM (inactive) | > 100 µM (inactive) | > 40.6 µM (inactive) | 0.01 µM (active) | > 10 µM (inactive) |  | 6.9 µM (inactive) |
| Cn1c(=O)n2n(c1=O)C1C(=CC2)C2C=CC1n1c(=O)n(C)c(=O)n12 (configuration not stated) | > 100 µM (inactive) | > 100 µM (inactive) | > 100 µM (inactive) | > 100 µM (inactive) | > 100 µM (inactive) | > 100 µM (inactive) | > 100 µM (inactive) | > 100 µM (inactive) | > 100 µM (inactive) | > 100 µM (inactive) | > 100 µM (inactive) | > 100 µM (inactive) | > 100 µM (inactive) | > 100 µM (inactive) | > 100 µM (inactive) | > 100 µM (inactive) | > 100 µM (inactive) | > 100 µM (inactive) |  | > 100 µM (inactive) |
| CCOC(=O)CCC1(CCC(=O)OCC)CCCCCCCCC(CCC(=O)OCC)(CCC(=O)OCC)C(=O)C1=O | > 100 µM (inactive) | > 100 µM (inactive) | > 100 µM (inactive) | > 100 µM (inactive) | > 100 µM (inactive) | > 100 µM (inactive) | > 100 µM (inactive) | > 100 µM (inactive) | > 100 µM (inactive) | > 100 µM (inactive) | > 100 µM (inactive) | > 100 µM (inactive) | > 100 µM (inactive) | > 100 µM (inactive) | > 100 µM (inactive) | > 100 µM (inactive) |  | > 100 µM (inactive) | > 100 µM (inactive) | 82.8 µM (inactive) |
| CCOC(=O)/C=C(\C(=O)OCC)n1ccc(=O)n(Cc2cnnn2COCCOC(C)=O)c1=O | 12.2 µM (inactive) | 3.79 µM (inactive) |  | 3.48 µM (inactive) | 14.2 µM (inactive) | 20.5 µM (inactive) | 22.9 µM (inactive) | 28.7 µM (inactive) | 16.8 µM (inactive) | 17.3 µM (inactive) | 16.8 µM (inactive) | 14.5 µM (inactive) | 14.2 µM (inactive) | 1.77 µM (inactive) | 18.4 µM (inactive) | 18.9 µM (inactive) | 0.598 µM (active) | 14.3 µM (inactive) | 23.9 µM (inactive) | 16.4 µM (inactive) |
| Cc1ccc(N(C)S(=O)(=O)c2ccc([N+](=O)[O-])cc2)cc1 | > 100 µM (inactive) | > 100 µM (inactive) |  | 41 µM (inactive) | 74 µM (inactive) | > 100 µM (inactive) | 97.9 µM (inactive) | 92.3 µM (inactive) | > 100 µM (inactive) |  | > 100 µM (inactive) | > 100 µM (inactive) | 74.6 µM (inactive) | > 100 µM (inactive) | > 100 µM (inactive) | > 100 µM (inactive) | 54.6 µM (inactive) | 34.4 µM (inactive) | > 100 µM (inactive) | > 100 µM (inactive) |
| CSc1nc2c(c(N(C)C)n1)C=Nn1c(nc3ccccc31)S2 | 76.2 µM (inactive) | 61.2 µM (inactive) | 25.7 µM (inactive) | > 100 µM (inactive) | 89.1 µM (inactive) | 41.4 µM (inactive) | > 100 µM (inactive) | > 100 µM (inactive) | 95.1 µM (inactive) | > 100 µM (inactive) | > 100 µM (inactive) |  | > 100 µM (inactive) | > 100 µM (inactive) | > 100 µM (inactive) | 84.3 µM (inactive) |  | > 100 µM (inactive) | 81.8 µM (inactive) | 64.1 µM (inactive) |
| COC(=O)NC(Nc1ccc(C)cc1)(C(F)(F)F)C(F)(F)F | > 100 µM (inactive) | > 100 µM (inactive) | > 100 µM (inactive) | > 100 µM (inactive) | > 100 µM (inactive) | > 100 µM (inactive) | > 100 µM (inactive) | > 100 µM (inactive) | > 100 µM (inactive) | > 100 µM (inactive) | > 100 µM (inactive) | > 100 µM (inactive) | > 100 µM (inactive) | > 100 µM (inactive) | > 100 µM (inactive) | > 100 µM (inactive) | > 100 µM (inactive) | > 100 µM (inactive) |  | > 100 µM (inactive) |
| CN1CCC(OC(=O)Oc2ccccc2)(c2ccccc2)CC1 | 17.8 µM (inactive) | 34.9 µM (inactive) |  | 24.7 µM (inactive) | 13.5 µM (inactive) | 28.5 µM (inactive) | 16.6 µM (inactive) | 24 µM (inactive) | 17.6 µM (inactive) | 14.4 µM (inactive) | 21.1 µM (inactive) | 45.8 µM (inactive) | 4.51 µM (inactive) | 12.5 µM (inactive) | 17.9 µM (inactive) | 15.5 µM (inactive) | 16.5 µM (inactive) | 18 µM (inactive) | 18.3 µM (inactive) | 24.4 µM (inactive) |
| CC1OC23CCCCC2C(C#N)(C#N)C1(C#N)C(=N)O3 (configuration not stated) | 17.6 µM (inactive) | 19.9 µM (inactive) | 13.8 µM (inactive) | 13.7 µM (inactive) | 17.9 µM (inactive) | 21.8 µM (inactive) | 37.4 µM (inactive) | 70 µM (inactive) | 18.4 µM (inactive) | 21 µM (inactive) | 19.6 µM (inactive) | 28.6 µM (inactive) | 27.1 µM (inactive) | 14.7 µM (inactive) | 19.9 µM (inactive) |  | 4.21 µM (inactive) | 24.4 µM (inactive) |  | 38.3 µM (inactive) |
| Nc1cc(OCc2ccccc2)c(OCc2ccccc2)cc1C=O | 26.2 µM (inactive) | 26 µM (inactive) |  | 44.4 µM (inactive) | 14.1 µM (inactive) | 42.4 µM (inactive) | 33 µM (inactive) | 31.4 µM (inactive) | 39.5 µM (inactive) | > 10 µM (inactive) | 31.2 µM (inactive) | 24.4 µM (inactive) | 22.9 µM (inactive) | 24.7 µM (inactive) | 28.2 µM (inactive) | > 10 µM (inactive) | 15.2 µM (inactive) | 35.1 µM (inactive) |  | 52.8 µM (inactive) |
| CCN(CC)CCC1(C(=O)OC)SCCc2ccc(C)cc21 (configuration not stated) | > 100 µM (inactive) | > 100 µM (inactive) | > 100 µM (inactive) | > 100 µM (inactive) | > 100 µM (inactive) | > 100 µM (inactive) | > 100 µM (inactive) | > 100 µM (inactive) | > 100 µM (inactive) | > 100 µM (inactive) | > 100 µM (inactive) | > 100 µM (inactive) |  | > 100 µM (inactive) | > 100 µM (inactive) | > 100 µM (inactive) |  | > 100 µM (inactive) | > 100 µM (inactive) | 63.2 µM (inactive) |
| Cc1ccnc2nc3[nH]c4ccccc4c3cc12 | > 100 µM (inactive) | > 100 µM (inactive) | > 100 µM (inactive) | > 100 µM (inactive) | > 100 µM (inactive) | > 100 µM (inactive) | > 100 µM (inactive) | > 100 µM (inactive) | > 100 µM (inactive) | > 100 µM (inactive) | > 100 µM (inactive) | > 100 µM (inactive) | > 100 µM (inactive) | > 100 µM (inactive) | > 100 µM (inactive) | 75.7 µM (inactive) |  | > 100 µM (inactive) | > 100 µM (inactive) | 22 µM (inactive) |
| C=CCN(c1cc(OC)c2[nH]cc(C)c2c1[N+](=O)[O-])S(C)(=O)=O | > 100 µM (inactive) | > 100 µM (inactive) |  | > 100 µM (inactive) | > 100 µM (inactive) | > 100 µM (inactive) | > 100 µM (inactive) | > 100 µM (inactive) | > 100 µM (inactive) | > 100 µM (inactive) | > 100 µM (inactive) | > 100 µM (inactive) |  | > 100 µM (inactive) | > 100 µM (inactive) | > 100 µM (inactive) | > 100 µM (inactive) | > 100 µM (inactive) | > 100 µM (inactive) | > 100 µM (inactive) |
